Test results from ChEMBL document CHEMBL1201862, “PubChem BioAssay data set” (2004).
Calls of active or inactive are those of the source.

How the values were obtained:
[1] = molecular target: T1, Rac GTPase-activating protein 1 (Homo sapiens, UniProt Q9H0H5); test: MgcRacGAP GTPase-activating activity inhibitors, confirmation, biochemical, ADP Hunter fluorescence, primary and confirmatory (AID 624330); format: functional
T1 sequence (Q9H0H5 whole entry): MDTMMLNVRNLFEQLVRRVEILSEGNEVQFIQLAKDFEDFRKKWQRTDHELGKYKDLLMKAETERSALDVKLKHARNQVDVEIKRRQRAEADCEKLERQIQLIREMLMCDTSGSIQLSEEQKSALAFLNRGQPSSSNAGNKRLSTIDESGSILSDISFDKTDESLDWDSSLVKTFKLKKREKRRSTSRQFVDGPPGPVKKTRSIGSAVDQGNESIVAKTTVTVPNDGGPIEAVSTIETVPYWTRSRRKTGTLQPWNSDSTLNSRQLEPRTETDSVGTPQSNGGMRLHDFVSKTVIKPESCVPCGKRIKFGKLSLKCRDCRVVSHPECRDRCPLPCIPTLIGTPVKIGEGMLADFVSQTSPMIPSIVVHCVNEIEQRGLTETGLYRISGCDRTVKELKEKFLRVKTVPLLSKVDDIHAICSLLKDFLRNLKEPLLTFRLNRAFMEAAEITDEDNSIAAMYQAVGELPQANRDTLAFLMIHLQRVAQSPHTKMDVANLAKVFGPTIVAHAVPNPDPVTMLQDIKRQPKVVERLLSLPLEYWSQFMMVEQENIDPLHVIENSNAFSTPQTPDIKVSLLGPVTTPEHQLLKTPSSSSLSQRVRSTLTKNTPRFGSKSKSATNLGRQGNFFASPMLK

[2] = molecular target: T2, DNA repair protein RAD52 homolog (Homo sapiens, UniProt P43351); format: functional, biochemical
T2 sequence (P43351 whole entry): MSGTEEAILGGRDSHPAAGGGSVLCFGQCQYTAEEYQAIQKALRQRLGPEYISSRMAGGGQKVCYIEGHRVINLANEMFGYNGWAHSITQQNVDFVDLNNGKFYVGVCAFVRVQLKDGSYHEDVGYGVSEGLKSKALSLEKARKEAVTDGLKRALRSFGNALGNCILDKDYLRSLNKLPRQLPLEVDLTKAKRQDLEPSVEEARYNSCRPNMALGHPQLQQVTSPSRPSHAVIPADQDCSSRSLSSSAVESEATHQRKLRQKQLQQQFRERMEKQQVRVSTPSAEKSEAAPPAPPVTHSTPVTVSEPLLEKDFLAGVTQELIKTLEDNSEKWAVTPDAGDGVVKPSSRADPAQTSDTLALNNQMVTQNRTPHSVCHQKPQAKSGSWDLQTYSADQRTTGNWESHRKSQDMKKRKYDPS

[3] = inhibitors of Vif binding to APOBEC3G peptide, primary screen, biochemical, TR-FRET, GST-Vif 1-94, biotin-A3G peptide, dose response retest (AID 1117319); format: functional;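 note: TR-FRET signal of purified GST-Vif binding a biotinylated A3G peptide; inhibitors lower the FRET signal by blocking Vif and A3G binding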
[4] = molecular target: T3, RNA-binding protein pos-1 (Caenorhabditis elegans, UniProt G5EF15); test: inhibitors of POS-1/mex-3 RNA binding, dose response, biochemical, fluorescence polarization (AID 1964);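 note: purified POS-1 fused to maltose binding protein made in E. coli; potency of compounds blocking POS-1 binding to fluorescent RNA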
T3 sequence (G5EF15 whole entry): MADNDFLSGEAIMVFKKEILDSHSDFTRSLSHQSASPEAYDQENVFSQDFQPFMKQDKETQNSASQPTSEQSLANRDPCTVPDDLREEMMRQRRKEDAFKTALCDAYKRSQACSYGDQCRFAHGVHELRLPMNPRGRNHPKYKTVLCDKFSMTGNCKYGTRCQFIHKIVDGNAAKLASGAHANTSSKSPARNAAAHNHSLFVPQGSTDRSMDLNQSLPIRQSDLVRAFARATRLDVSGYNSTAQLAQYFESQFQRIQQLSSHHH

[5] = molecular target: T4, Zinc finger protein mex-5 (Caenorhabditis elegans, UniProt Q9XUB2); test: MEX-5/TCR-2 RNA interaction inhibitors, dose response, biochemical, C. elegans, fluorescence polarization (AID 1960)
T4 sequence (Q9XUB2 whole entry): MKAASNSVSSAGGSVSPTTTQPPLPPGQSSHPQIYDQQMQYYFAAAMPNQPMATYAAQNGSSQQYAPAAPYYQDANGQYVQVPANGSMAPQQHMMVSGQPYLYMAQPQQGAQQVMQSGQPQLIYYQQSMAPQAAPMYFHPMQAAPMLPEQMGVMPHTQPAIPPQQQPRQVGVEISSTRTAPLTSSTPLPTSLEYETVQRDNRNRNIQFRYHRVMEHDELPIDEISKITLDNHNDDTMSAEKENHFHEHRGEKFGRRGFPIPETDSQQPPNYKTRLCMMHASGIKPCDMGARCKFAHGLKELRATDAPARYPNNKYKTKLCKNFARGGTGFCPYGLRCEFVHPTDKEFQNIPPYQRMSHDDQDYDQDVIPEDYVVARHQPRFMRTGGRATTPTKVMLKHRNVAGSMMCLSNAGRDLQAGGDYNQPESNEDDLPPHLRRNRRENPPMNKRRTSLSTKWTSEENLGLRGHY

[6] = molecular target: T5, Heat shock factor protein 1 (Mus musculus, UniProt P38532); test: inhibition of MG132-induced HSE-luciferase signal, confirmation, cell-based, NIH3T3, luminescence, dose retest (AID 2382); format: functional;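 note: NIH3T3 fibroblasts with HSF1-driven luciferase reporter stressed by proteasome inhibitor MG132; luminescence from HSF1-driven luciferase expression after 8 hours of MG132 stress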
T5 sequence (P38532 whole entry): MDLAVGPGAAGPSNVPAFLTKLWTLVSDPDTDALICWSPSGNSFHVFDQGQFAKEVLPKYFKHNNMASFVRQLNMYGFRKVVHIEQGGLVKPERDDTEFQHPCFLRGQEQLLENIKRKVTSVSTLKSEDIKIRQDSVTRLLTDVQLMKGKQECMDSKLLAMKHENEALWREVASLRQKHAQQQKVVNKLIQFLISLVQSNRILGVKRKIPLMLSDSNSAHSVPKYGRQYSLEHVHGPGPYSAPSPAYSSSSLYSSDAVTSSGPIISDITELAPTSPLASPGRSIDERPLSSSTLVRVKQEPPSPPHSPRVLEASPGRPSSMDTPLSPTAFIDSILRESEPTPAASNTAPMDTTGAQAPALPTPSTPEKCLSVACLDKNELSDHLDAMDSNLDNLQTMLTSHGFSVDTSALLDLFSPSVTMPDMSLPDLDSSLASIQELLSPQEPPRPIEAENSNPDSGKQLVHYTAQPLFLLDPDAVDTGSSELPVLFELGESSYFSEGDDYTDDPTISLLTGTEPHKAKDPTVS

Large T antigen = Large T antigen (Simian virus 40, UniProt P03070); format: functional, Betapolyomavirus macacae;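 note: Confirmatory-stage PubChem screen for compounds that inhibit SV40 T antigen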
[7] = molecular target: T6, Histone-lysine N-methyltransferase NSD2 (Homo sapiens, UniProt O96028); format: biochemical
T6 sequence (O96028 whole entry): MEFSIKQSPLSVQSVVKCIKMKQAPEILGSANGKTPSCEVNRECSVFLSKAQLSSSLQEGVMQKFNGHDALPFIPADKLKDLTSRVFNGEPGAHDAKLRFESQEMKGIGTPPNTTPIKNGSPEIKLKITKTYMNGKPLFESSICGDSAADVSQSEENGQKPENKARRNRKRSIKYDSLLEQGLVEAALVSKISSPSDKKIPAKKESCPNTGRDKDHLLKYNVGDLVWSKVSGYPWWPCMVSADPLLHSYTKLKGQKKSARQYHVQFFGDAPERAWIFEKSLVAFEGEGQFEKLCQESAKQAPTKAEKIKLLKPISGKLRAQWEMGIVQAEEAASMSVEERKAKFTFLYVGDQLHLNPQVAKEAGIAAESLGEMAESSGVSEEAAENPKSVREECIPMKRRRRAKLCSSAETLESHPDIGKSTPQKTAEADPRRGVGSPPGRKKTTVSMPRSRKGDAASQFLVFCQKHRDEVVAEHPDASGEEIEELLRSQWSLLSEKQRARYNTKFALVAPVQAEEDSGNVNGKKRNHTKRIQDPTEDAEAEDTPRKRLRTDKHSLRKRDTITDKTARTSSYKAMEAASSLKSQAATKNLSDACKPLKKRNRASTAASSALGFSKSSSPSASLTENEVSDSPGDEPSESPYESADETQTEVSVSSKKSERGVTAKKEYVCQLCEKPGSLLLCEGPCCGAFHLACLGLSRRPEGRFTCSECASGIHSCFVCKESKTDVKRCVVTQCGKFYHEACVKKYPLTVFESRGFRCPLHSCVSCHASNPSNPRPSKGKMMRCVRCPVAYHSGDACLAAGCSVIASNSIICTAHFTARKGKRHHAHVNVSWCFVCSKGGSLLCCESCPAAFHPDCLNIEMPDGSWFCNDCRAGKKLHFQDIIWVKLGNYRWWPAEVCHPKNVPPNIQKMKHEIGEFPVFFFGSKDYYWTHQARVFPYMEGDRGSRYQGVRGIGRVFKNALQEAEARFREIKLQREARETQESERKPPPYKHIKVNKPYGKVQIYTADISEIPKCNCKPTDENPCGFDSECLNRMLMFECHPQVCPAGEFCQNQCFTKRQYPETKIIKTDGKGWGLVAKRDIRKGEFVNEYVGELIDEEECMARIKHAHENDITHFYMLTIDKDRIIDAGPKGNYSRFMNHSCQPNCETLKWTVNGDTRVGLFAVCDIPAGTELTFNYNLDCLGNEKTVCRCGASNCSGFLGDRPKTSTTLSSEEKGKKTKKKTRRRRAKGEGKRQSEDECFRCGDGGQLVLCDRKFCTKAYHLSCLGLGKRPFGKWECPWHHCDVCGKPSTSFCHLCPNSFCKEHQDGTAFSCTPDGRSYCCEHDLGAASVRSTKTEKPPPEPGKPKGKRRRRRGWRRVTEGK

[8] = Luminescence Cell-Based Dose Retest to Confirm Inhibitors of Cancer Stem Cells. [Related pubchem assays (depositor defined):AID2717, AID2721]; format: functional; details: Homo sapiens
[9] = molecular target: Heat shock protein HSP 90-alpha (Homo sapiens, UniProt P07900); format: functional, organism-based
[10] = system: Streptococcus sp. 'group A'; test: growth inhibition of control SK(-) GAS strain, dose response, counter-screen for streptokinase expression inhibitor project, luminescence, kanamycin, BacTiterGlo, confirmation (AID 1900); format: functional, organism-based
Streptokinase A = molecular target: T7, Streptokinase A (Streptococcus pyogenes serotype M1, UniProt P10520); test: S. pyogenes streptokinase expression inhibitors, potency, dose response, plasminogen activation absorbance, OD405 (AID 1914); format: functional, Streptococcus pyogenes M1 GAS;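 note: secreted streptokinase activity via plasminogen activation per viability signal from cell pellet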
T7 sequence (P10520 whole entry): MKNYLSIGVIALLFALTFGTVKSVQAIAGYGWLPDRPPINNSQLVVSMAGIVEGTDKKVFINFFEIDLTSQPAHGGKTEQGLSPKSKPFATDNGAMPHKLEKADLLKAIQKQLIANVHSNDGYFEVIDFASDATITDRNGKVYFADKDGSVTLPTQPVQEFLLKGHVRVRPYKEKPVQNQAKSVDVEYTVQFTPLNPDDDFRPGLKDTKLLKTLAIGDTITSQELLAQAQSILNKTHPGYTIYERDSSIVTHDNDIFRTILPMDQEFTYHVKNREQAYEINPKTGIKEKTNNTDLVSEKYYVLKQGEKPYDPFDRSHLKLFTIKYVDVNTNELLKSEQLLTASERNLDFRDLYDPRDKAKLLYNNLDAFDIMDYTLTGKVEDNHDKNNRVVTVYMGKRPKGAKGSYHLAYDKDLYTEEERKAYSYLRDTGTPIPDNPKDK

[11] = microbe, parasite or virus in culture; format: functional; details: Mycobacterium tuberculosis
Streptococcus = test: Group A Streptococcus viability loss, dose response, counter-screen for streptokinase expression inhibitor project, luminescence, BacTiterGlo (AID 1915); format: functional, organism-based;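 note: potency for reduction of bacterial viability or growth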
[12] = HEp-2 cell cytotoxicity, dose response, cytotoxicity control for RSV inhibitor project, HTS (AID 2410); format: functional; details: human respiratory syncytial virus
[13] = inhibitors of intracellular T. cruzi replication, confirmation, NIH3T3 host cells, beta-gal luminescence (AID 2044); format: functional, cell-based;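 note: intracellular parasites grown in NIH/3T3 mouse fibroblasts as host cells; luminescent beta-galactosidase reporter signal from transgenic T. cruzi replicating inside host cells; inhibitors lower the luminescence signal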
[14] = cytotoxicity toward NIH3T3 fibroblasts, dose response, counter-screen, cell-based, ATP luminescence, mouse fibroblasts (AID 2010); format: functional;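 note: cells exposed to compound for about 90 hours before reading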

Large T antigen, sequence (P03070 whole entry): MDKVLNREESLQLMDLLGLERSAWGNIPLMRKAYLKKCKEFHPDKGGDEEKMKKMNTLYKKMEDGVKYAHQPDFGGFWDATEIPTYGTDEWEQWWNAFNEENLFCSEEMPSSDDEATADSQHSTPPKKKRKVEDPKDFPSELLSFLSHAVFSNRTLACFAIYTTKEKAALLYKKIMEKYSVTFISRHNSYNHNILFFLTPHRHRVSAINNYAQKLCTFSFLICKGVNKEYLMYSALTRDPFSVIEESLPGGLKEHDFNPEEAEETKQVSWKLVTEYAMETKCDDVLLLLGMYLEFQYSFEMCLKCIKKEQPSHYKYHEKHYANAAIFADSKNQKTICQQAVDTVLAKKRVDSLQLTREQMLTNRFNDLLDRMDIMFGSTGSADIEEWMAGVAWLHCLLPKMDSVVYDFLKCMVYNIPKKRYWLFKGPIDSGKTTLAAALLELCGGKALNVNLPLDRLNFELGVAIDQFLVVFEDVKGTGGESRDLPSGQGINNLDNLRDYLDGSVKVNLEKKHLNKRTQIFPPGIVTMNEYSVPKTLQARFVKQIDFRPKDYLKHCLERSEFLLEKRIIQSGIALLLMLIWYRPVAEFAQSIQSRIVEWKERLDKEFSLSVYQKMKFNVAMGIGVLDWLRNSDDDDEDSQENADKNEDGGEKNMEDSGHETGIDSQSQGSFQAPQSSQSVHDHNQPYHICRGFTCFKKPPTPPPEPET

SMILES: Nc1ccc(Nc2ccncc2)cc1
- IC50 [1]: 247 µM (active)
- AC50 [2]: 16.9 µM (active)

SMILES: CCNC(=O)CC1C(=O)N(c2ccc(C)cc2)C(=O)N1CCc1ccc(OC)c(OC)c1 (centres undefined)
- IC50 [3]: > 100 µM (active)

SMILES: CN(C)c1ccc2nc3ccc(=[N+](C)C)cc-3sc2c1 [METHYLENE BLUE ANHYDROUS]
- EC50 [4]: 187 µM (active)
- EC50 [5]: 114 µM (active)
- AC50 [2]: 0.936 µM (active)

SMILES: COc1cc(/C=N/N=C2/C(=O)Nc3ccccc32)cc(OC)c1O
- EC50 [6]: > 195 µM (not active)
- IC50 (Large T antigen): 12.4 µM (active)
- IC50 [1]: 50.9 µM (active)
- AC50 [7]: > 20 µM (inactive)

SMILES: CCCc1cc(O)nc(SCC(=O)Nc2cc3c(cc2C(C)=O)OCO3)n1
- IC50 [3]: > 100 µM (active)

SMILES: COc1cc2c(cc1N)-c1ccc(N)cc1C2
- IC50 [1]: 10.7 µM (active)
- IC50 [3]: > 100 µM (active)

SMILES: O=C(Oc1ccccc1)c1cc(O)c(O)c(O)c1
- AC50 [7]: 4.01 µM (active)

SMILES: Cc1cccc(C)c1N=Nc1c(C)cc(O)cc1C
- AC50 [8]: 5.46 µM (active)
- AC50 [9]: 8.38 µM (active)
- AC50 [7]: > 20 µM (inactive)

SMILES: CCCCCOC(=O)c1c(N)n(CCOC)c2nc3ccccc3nc12
- AC50 [7]: 15.7 µM (active)

SMILES: CC1(C)Cc2c(cnn2-c2ccccc2)-c2c1c1ccccc1n2CC(O)CCl (centres undefined)
- EC50 [10]: 8.41 µM (active)
- EC50 (Streptokinase A): 13.7 µM (active)
- CC50 [11]: > 40 µM (active)
- EC50 (Streptococcus): > 150 µM (not active)

SMILES: CC1(c2ccc3noc(-c4ccccc4)c3c2)OCCO1
- IC50 [3]: > 100 µM (active)

SMILES: Cc1ccc(Cl)cc1N1CCN(Cc2nc(O)c3sccc3n2)CC1
- CC50 [11]: > 40 µM (active)

SMILES: CCc1ccc2nc(N(CCCN(C)C)C(=O)c3ccc(S(=O)(=O)N4CCCc5ccccc54)cc3)sc2c1
- CC50 [12]: 12.7 µM (active)
- EC50 [13]: 0.187 µM (active)
- CC50 [11]: 13.8 µM (active)
- EC50 [14]: 9.15 µM (active)
- AC50 [8]: 6.44 µM (active)
